Assay results: patent US6242429A, “Arabinosyladenine derivatives” (priority 1998, dated 2001)
Entries after “also recorded” stand apart in the source; their conditions may differ.

Tests used:
[1] = test system: adenosinedeaminase (ADA); conditions: background statement; cited from earlier work
[2] = test system: shingles herpes virus (VZV, Kawaguchi strain); assay: Antiviral activity to shingles herpes virus, plaque numbers on HEL cells; assay type: cell-based, varicella-zoster virus; conditions: incubated one week, FIG. 1 and FIG. 2
Description: As a test for efficacy of antiviral activity, antiviral activity to shingles herpes virus was measured. Cell-free aricella-zoster virus (VZV) (Kawaguchi strain) was diluted and the resulting solution was layered on HEL cells of a 100% confluent. The layered product was placed in a CO2 incubator of 37° C., shaken every 15 minutes and infected for one hour. The virus solution was removed by suction, then DMEM containing 5% of FCS and a compound of the present invention, a control compound or Ara-A (positive control) was added thereto and the mixture was incubated for one week. The incubated mixture was fixed by formalin, dyed with Crystal Violet and numbers of plaques were measured. The inhibiting rate to shingles virus was determined from the plaque numbers of the control.

[3] = test system: adenosinedeaminase (ADA); assay: Stability to ADA, enzymatic reaction followed by decrease in UV absorption at 265 nm; assay type: in vitro ADME; conditions: 0.1 mM compound, 75 mM phosphate buffer pH 7.5, 25° C., UV 265 nm
Description: An enzymatic reaction was carried out to test stability of the compounds to ADA. Thus, 200 μL (final concentration: 0.1 mM) of a 1 mM solution of a compound of the present invention, a control compound or Ara-A (control), 1.5 mL of a 0.1 M phosphate buffer (pH 7.5; final concentration: 75 mM) and 300 μL of a 200 units/mL enzyme solution (final concentration: […]) were placed in a UV cell and the decrease in ultraviolet absorption at 265 nm with a lapse of time was measured by an ultraviolet absorption meter. The enzymatic reaction was carried out at 25° C. As the enzymatic reaction proceeded, an ultraviolet absorption at 265 nm decreased and said rate of decrease in ultraviolet absorption was expressed as a relative enzymatic reaction rate.

Compound	metabolism by ADA in the blood stream [1]	antiviral activity to shingles virus (inhibiting rate from plaque numbers) [2]	resistance (stability) to metabolism by ADA, relative enzymatic reaction rate [3]
Nc1ncnc2c1ncn2[C@@H]1O[C@H](CO)[C@@H](O)[C@@H]1O [Ara-A, Arabinosyladenine]	quickly metabolized by adenosinedeaminase (ADA) in the blood stream to hypoxanthine arabinoside		
Cc1nc(N)c2ncn([C@@H]3O[C@H](CO)[C@@H](O)[C@@H]3O)c2n1 [control compound A, 9-(β-D-arabinofuranosyl)-2-methyladenine]		no strong antiviral action is obtained; also recorded: a sufficient antiviral action is not achieved	not satisfactory in terms of resistance to ADA; also recorded: did not show a favorable resistance to ADA
CCc1nc(N)c2ncn([C@@H]3O[C@H](CO)[C@@H](O)[C@@H]3O)c2n1 [control compound B, 9-(β-D-arabinofuranosyl)-2-ethyladenine]		no strong antiviral action is obtained; also recorded: a sufficient antiviral action is not achieved	not satisfactory in terms of resistance to ADA; also recorded: did not show a favorable resistance to ADA
